Results as given in ChEMBL document CHEMBL5260813, “An overview on the recent developments of 1,2,4-triazine derivatives as anticancer compounds” (Eur J Med Chem, 2017).
Each block holds one compound with its values, some of them ahead of it.

Experiments:
[1] = system: BT-474; assay: Antiproliferative activity against human BT-474 cells assessed as inhibition of cell growth; assay type: functional, cell-based
[2] = target: Epidermal growth factor receptor (Homo sapiens, UniProt P00533); assay: Inhibition of EGFR (unknown origin)
Sequence of Epidermal growth factor receptor (P00533 whole entry): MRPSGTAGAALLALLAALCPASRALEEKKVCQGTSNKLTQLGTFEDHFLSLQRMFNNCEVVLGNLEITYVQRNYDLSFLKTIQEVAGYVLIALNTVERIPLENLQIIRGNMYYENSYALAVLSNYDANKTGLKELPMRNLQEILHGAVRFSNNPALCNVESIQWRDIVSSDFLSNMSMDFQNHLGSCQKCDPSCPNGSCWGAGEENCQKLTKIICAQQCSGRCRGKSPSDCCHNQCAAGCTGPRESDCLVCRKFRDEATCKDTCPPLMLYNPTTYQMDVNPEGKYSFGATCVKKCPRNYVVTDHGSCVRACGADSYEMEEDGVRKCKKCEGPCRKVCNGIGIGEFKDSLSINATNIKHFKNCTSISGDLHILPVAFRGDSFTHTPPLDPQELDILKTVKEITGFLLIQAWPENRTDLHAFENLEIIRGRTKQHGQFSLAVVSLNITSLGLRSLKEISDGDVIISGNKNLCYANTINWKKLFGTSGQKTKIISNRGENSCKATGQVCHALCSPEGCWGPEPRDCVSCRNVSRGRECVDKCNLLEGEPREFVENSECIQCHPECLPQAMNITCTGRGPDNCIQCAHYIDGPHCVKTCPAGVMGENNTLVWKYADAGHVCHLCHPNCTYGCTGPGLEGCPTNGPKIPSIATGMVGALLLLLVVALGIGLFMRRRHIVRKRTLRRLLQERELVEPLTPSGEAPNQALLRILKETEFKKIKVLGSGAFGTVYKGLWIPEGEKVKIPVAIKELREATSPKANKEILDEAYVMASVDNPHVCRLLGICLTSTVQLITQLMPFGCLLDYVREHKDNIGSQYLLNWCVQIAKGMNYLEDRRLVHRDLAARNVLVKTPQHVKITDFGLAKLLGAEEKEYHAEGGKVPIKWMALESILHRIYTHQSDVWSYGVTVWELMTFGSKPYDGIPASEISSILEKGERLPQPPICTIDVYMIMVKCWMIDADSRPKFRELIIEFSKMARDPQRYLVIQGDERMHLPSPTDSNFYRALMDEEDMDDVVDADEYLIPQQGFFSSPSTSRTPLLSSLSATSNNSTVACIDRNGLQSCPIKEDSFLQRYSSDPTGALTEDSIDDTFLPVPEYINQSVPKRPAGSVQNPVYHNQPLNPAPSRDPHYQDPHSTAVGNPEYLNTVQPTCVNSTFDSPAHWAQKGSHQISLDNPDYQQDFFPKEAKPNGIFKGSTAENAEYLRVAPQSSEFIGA

[3] = target: Vascular endothelial growth factor receptor 2 (Homo sapiens, UniProt P35968); assay: Inhibition of VEGFR-2 (unknown origin)
Sequence of Vascular endothelial growth factor receptor 2 (P35968 whole entry): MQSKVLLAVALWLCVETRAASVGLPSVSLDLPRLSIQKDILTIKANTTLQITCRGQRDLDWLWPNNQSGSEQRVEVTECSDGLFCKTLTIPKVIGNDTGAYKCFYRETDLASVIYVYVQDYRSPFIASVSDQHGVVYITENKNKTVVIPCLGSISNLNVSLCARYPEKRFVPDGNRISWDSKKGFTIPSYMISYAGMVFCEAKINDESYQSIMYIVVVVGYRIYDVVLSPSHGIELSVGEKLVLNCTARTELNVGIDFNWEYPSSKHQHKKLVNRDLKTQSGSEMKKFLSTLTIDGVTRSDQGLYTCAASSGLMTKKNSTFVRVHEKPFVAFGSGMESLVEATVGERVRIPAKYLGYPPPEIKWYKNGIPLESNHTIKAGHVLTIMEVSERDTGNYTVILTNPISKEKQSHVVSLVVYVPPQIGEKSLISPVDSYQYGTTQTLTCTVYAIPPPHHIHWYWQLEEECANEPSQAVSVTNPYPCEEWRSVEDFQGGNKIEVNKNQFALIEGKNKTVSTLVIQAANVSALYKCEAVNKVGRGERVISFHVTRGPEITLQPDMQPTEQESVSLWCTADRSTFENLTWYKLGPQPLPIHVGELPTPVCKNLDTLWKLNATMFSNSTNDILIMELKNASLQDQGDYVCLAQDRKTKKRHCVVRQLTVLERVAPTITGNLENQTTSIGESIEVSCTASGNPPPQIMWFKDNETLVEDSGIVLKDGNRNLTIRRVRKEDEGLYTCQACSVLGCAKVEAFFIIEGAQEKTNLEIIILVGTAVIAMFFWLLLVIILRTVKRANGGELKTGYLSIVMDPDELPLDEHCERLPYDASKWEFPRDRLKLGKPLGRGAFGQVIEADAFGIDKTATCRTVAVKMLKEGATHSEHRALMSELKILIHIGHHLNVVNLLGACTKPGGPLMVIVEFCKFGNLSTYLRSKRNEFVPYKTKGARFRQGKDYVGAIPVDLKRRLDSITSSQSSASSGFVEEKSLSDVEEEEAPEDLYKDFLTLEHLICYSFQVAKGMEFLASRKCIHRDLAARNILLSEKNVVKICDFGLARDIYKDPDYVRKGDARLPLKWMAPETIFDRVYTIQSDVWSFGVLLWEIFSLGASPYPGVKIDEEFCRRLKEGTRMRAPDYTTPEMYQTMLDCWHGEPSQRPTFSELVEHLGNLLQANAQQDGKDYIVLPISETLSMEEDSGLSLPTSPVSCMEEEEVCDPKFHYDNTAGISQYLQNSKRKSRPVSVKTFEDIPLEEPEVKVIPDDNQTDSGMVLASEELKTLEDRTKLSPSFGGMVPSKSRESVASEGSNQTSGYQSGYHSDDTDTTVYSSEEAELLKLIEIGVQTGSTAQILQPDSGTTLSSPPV

[4] = Antiproliferative activity against human DiFi cells assessed as inhibition of cell growth by MTS assay
[5] = system: OVCAR-4; assay: Antiproliferative activity against human OVCAR-4 cells assessed as cell growth inhibition; assay type: functional, cell-based
[6] = Ratio of IC50 for antiproliferative activity against human PC-3 cells assessed as inhibition of cell growth under normoxia condition to IC50 for antiproliferative activity against human PC-3 cells assessed as inhibition of cell growth under hypoxia condition; assay type: functional
[7] = system: PC-3; assay: Antiproliferative activity against human PC-3 cells assessed as inhibition of cell growth under normoxia condition incubated for 72 hrs by MTT assay; assay type: functional, cell-based; settings: PC-3, 72 h
[8] = Ratio of IC50 for antiproliferative activity against human HL-60 cells assessed as inhibition of cell growth under normoxia condition to IC50 for antiproliferative activity against human HL-60 cells assessed as inhibition of cell growth under hypoxia condition; assay type: functional
[9] = Ratio of IC50 for antiproliferative activity against human MCF7 cells assessed as inhibition of cell growth under normoxia condition to IC50 for antiproliferative activity against human MCF7 cells assessed as inhibition of cell growth under hypoxia condition; assay type: functional
[10] = Ratio of IC50 for antiproliferative activity against human Bel-7402 cells assessed as inhibition of cell growth under normoxia condition to IC50 for antiproliferative activity against human Bel-7402 cells assessed as inhibition of cell growth under hypoxia condition; assay type: functional
[11] = system: ECa-109 cell line; assay: Antiproliferative activity against human Eca-109 cells assessed as inhibition of cell growth under normoxia condition incubated for 72 hrs by MTT assay; assay type: functional, cell-based; settings: ECa-109, 72 h
[12] = system: ECa-109 cell line; assay: Antiproliferative activity against human Eca-109 cells assessed as inhibition of cell growth under hypoxia condition incubated for 72 hrs by MTT assay; assay type: functional, cell-based; settings: ECa-109, 72 h
[13] = system: Bel-7402; assay: Antiproliferative activity against human Bel-7402 cells assessed as inhibition of cell growth under normoxia condition incubated for 72 hrs by MTT assay; assay type: functional, cell-based; settings: Bel-7402, 72 h
[14] = system: Bel-7402; assay: Antiproliferative activity against human Bel-7402 cells assessed as inhibition of cell growth under hypoxia condition incubated for 72 hrs by MTT assay; assay type: functional, cell-based; settings: Bel-7402, 72 h
[15] = Ratio of IC50 for antiproliferative activity against human Eca-109 cells assessed as inhibition of cell growth under normoxia condition to IC50 for antiproliferative activity against human Eca-109 cells assessed as inhibition of cell growth under hypoxia condition; assay type: functional
[16] = system: HL-60; assay: Antiproliferative activity against human HL-60 cells assessed as inhibition of cell growth under hypoxia condition incubated for 72 hrs by MTT assay; assay type: functional, cell-based; settings: HL-60, 72 h
[17] = system: MCF7; assay: Antiproliferative activity against human MCF7 cells assessed as inhibition of cell growth under hypoxia condition incubated for 72 hrs by MTT assay; assay type: functional, cell-based; settings: MCF7, 72 h
[18] = system: MCF7; assay: Antiproliferative activity against human MCF7 cells assessed as inhibition of cell growth under normoxia condition incubated for 72 hrs by MTT assay; assay type: functional, cell-based; settings: MCF7, 72 h
[19] = system: HL-60; assay: Antiproliferative activity against human HL-60 cells assessed as inhibition of cell growth under normoxia condition incubated for 72 hrs by MTT assay; assay type: functional, cell-based; settings: HL-60, 72 h
[20] = system: PC-3; assay: Antiproliferative activity against human PC-3 cells assessed as inhibition of cell growth under hypoxia condition incubated for 72 hrs by MTT assay; assay type: functional, cell-based; settings: PC-3, 72 h
[21] = target: T1, Tyrosine-protein kinase SYK (Homo sapiens, UniProt P43405); assay: Inhibition of human SYK using 5-Fluo-Ahx-GAPDYENLQELNKK-Amid as substrate in presence of ATP by microfluidic mobility shift assay
[22] = target: T1, Tyrosine-protein kinase SYK; assay: Inhibition of SYK in human Ramos cells assessed as reduction in anti IgM-induced phosphorylation of BLNK by flow cytometry assay; assay type: cell-based
[23] = system: HT-29; assay: Potency index, ratio of tirapazamine IC50 to compound IC50 for antiproliferative activity against human HT-29 cells; assay type: functional
[24] = system: HT-29; assay: Antiproliferative activity against human HT-29 cells assessed as inhibition of cell growth by SRB assay; assay type: functional, cell-based
[25] = system: HCT-116; assay: Antiproliferative activity against human HCT-116 cells assessed as inhibition of cell growth; assay type: functional, cell-based
[26] = system: HepG2; assay: Antiproliferative activity against human HepG2 cells assessed as cell growth inhibition; assay type: functional, cell-based
[27] = system: MCF7; assay: Antiproliferative activity against human MCF7 cells assessed as inhibition of cell growth; assay type: functional, cell-based
[28] = system: HL-60; assay: Antiproliferative activity against human HL-60 cells assessed as inhibition of cell growth incubated for 72 hrs by MTT assay; assay type: functional, cell-based; settings: HL-60, 72 h
[29] = system: MCF7; assay: Cytotoxicity against human MCF7 cells assessed as inhibition of cell growth incubated for 72 hrs by MTT assay; assay type: functional, cell-based; settings: MCF7, 72 h
[30] = system: MOLT-4; assay: Antiproliferative activity against human MOLT-4 cells assessed as inhibition of cell growth incubated for 72 hrs by MTT assay; assay type: functional, cell-based; settings: MOLT-4, 72 h

Compound: CCCc1nc2c(=O)n(C)c(=O)nc-2n(C)n1
IC50 [1]: 900 nM

Compound: Cn1nc(Cc2ccccc2)nc2c(=O)n(C)c(=O)nc1-2
IC50 [1]: 900 nM

Compound: CCn1nc(-c2ccccc2)nc2c(=O)n(C)c(=O)nc1-2
IC50 [1]: 900 nM

Compound: Cn1nc(-c2ccccc2)nc2c(=O)n(C)c(=O)nc1-2
IC50 [1]: 900 nM

Compound: Cc1ccc2c(Nc3ccc(F)c(Cl)c3)ncnn12
IC50 [2]: > 2000 nM | IC50 [3]: 3250 nM | IC50 [4]: 1600 nM

IC50 [2]: 405 nM | IC50 [3]: 654 nM
Compound: Cc1cc2c(Nc3ccc(C)c(O)c3)ncnn2c1

Compound: Fc1ccc(Nc2ncnn3cccc23)cc1Cl
IC50 [2]: > 10000 nM | IC50 [3]: 118 nM | IC50 [4]: 1600 nM

IC50 [2]: 1440 nM | IC50 [3]: 510 nM
Compound: Cc1ccc(Nc2ncnn3cccc23)cc1O

IC50 [2]: 23 nM | IC50 [3]: 200 nM
Compound: Cc1ccc(Nc2ncnn3cc(C)c(C)c23)cc1O

Compound: Cc1cc2c(Nc3ccc(F)c(Cl)c3)ncnn2c1
IC50 [2]: > 2000 nM | IC50 [3]: 151 nM | IC50 [4]: 1600 nM

Compound: Cc1ccn2ncnc(Nc3ccc(F)c(Cl)c3)c12
IC50 [2]: > 10000 nM | IC50 [3]: 100 nM | IC50 [4]: 1600 nM

IC50 [2]: 66 nM | IC50 [3]: 346 nM
Compound: Cc1ccc(Nc2ncnn3ccc(C)c23)cc1O

Compound: Cc1c(-c2ccccc2)c(C#N)c2nnc(C(N)=O)c(N)n12
IC50 [5]: 2770 nM

Compound: CCOC(=O)c1nnc2c(C#N)c(-c3ccccc3)c(C)n2c1N
IC50 [5]: 2770 nM

Compound: [O-][n+]1nc(NC2CCCCC2)[n+]([O-])c2ccc(Cl)cc21
Ratio IC50 [6]: 2 | IC50 [7]: 200 nM | Ratio IC50 [8]: 6.4 | Ratio IC50 [9]: 2.7 | Ratio IC50 [10]: 1 | IC50 [11]: 200 nM | IC50 [12]: 200 nM | IC50 [13]: 200 nM | IC50 [14]: 200 nM | Ratio IC50 [15]: 2.9 | IC50 [16]: 200 nM | IC50 [17]: 200 nM | IC50 [18]: 200 nM | IC50 [19]: 200 nM | IC50 [20]: 200 nM

IC50 [21]: 0.8 nM | IC50 [22]: 14 nM
Compound: NC(=O)c1nnc(N[C@@H]2CCCC[C@@H]2N)nc1Nc1cccc2c(Cl)c[nH]c12

IC50 [21]: 0.8 nM | IC50 [22]: 14 nM
Compound: NC(=O)c1nnc(N[C@@H]2CCCC[C@@H]2N)nc1Nc1cc(F)cc2cc[nH]c12

IC50 [21]: 0.8 nM | IC50 [22]: 14 nM
Compound: Cc1c[nH]c2c(Nc3nc(N[C@@H]4CCCC[C@@H]4N)nnc3C(N)=O)cccc12

IC50 [21]: 0.8 nM | IC50 [22]: 14 nM
Compound: Cn1ncc2c(Nc3nc(N[C@@H]4CCCC[C@@H]4N)nnc3C(N)=O)cccc21

IC50 [21]: 0.8 nM | IC50 [22]: 14 nM
Compound: NC(=O)c1nnc(N[C@@H]2CCCC[C@@H]2N)nc1Nc1cccc2[nH]ncc12

Compound: Cc1c[nH]c2c(Nc3nc(N[C@@H]4CCCC[C@@H]4N)nnc3C(N)=O)cc(F)cc12
IC50 [22]: 14 nM

Compound: Nc1nc2ccccc2[n+]([O-])n1
Ratio IC50 [23]: 2 | IC50 [24]: > 500 nM

Compound: O=c1c(/C=C/c2cccs2)nnc(S)n1NC(=S)Nc1ccccc1
IC50 [25]: 8790 nM | IC50 [26]: 8790 nM | IC50 [27]: 8790 nM

Compound: O=c1c(/C=C/c2cccs2)nnc(S)n1/N=C/c1cccs1
IC50 [25]: 8790 nM | IC50 [26]: 8790 nM | IC50 [27]: 8790 nM

Compound: Clc1ccc(CSc2nnc3c(n2)-c2cccc4cccc-3c24)cc1
IC50 [28]: 30000 nM | IC50 [29]: 30000 nM | IC50 [30]: 30000 nM

Compound: CCOC(=O)c1nnc2c(C#N)c(C)c(-c3ccccc3)n2c1N
IC50 [5]: 2770 nM

Compound: Nn1c(S)nnc(/C=C/c2cccs2)c1=O
IC50 [25]: 8790 nM | IC50 [26]: 8790 nM | IC50 [27]: 8790 nM
